# Target: T1, human recombinant phosphodiesterase IVb (met-248) (Homo sapiens, UniProt Q07343)
# T1 construct: fused on or other part: GST (glutathione transferase) fused on as a tag
# Experiment: SPA based PDE activity assay
# Format: biochemical
# Details: 100 nM cAMP, purified GST fusion protein of PDE IVb (met-248) from baculovirus/Sf-9
# Protocol: Compounds which inhibit the hydrolysis of cAMP to AMP by the type-IV cAMP-specific phosphodiesterases were screened in a 96-well plate format as follows:
# In a 96 well-plate at 30° C. was added the test compound (dissolved in 2 μL DMSO), […] of substrate buffer containing [2,8-^3H] adenosine 3′,5′-cyclic phosphate (cAMP, 110 nM to 50 μM), 10 mM MgCl2, 1 mM EDTA, 50 mM Tris, pH 7.5. The reaction was initiated by the addition of […] of human recombinant PDE4 (the amount was controlled so that ˜10% product was formed in 10 min.). The reaction was stopped after 10 min. by the addition of 1 mg of PDE-SPA beads (Amersham Pharmacia Biotech, Inc., Piscataway, N.J.). The product AMP generated was quantified on a Wallac Microbeta® 96-well plate counter (EG&G Wallac Co., Gaithersburg, Md.). The signal in the absence of enzyme was defined as the background. 100% activity was defined as the signal detected in the presence of enzyme and DMSO with the background subtracted. Percentage of inhibition was calculated accordingly. IC50 value was approximated with a non-linear regression fit using the standard 4-parameter/multiple binding sites equation from a ten point titration.
# The IC50 values of the Examples disclosed here under were determined with 100 nM cAMP using the purified GST fusion protein of the human recombinant phosphodiesterase IVb (met-248) produced from a baculovirus/Sf-9 expression system.
# T1 sequence (Q07343 236-736): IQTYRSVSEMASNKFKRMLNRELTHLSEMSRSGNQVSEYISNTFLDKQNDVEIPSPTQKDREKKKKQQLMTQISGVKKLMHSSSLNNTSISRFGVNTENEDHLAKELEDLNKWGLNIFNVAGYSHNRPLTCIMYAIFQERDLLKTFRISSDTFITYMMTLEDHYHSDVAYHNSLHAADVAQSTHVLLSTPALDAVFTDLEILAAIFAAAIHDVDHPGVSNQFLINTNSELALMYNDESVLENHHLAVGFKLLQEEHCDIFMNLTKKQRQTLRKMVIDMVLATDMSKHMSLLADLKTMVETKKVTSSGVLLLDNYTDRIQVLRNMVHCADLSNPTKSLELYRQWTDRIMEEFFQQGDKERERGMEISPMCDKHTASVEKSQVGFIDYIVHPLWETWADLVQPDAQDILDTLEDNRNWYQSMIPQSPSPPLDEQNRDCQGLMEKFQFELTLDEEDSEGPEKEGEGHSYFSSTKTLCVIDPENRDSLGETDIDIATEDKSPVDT
row,Structure (SMILES),IC50
1,"O=C(NCC(F)(F)F)c1cn(-c2cccc(-c3ccc([C@@H]4C[C@H]4C(=O)O)cc3)c2)c2ncccc2c1=O (single isomer, unassigned; (+)) [24-(+)-isomer, (+)-(trans)-2-{3′-[4-oxo-3-{[(2,2,2-trifluoroethyl)amino]carbonyl}-1,8-naphthyridin-1(4H)-yl]biphenyl-4-yl}cyclopropanecarboxylic acid]",0.4 nM
2,"O=C(NCC(F)(F)F)c1cn(-c2cccc(-c3ccc(C4CC4C(=O)O)c(F)c3)c2)c2ncccc2c1=O (single isomer, unassigned; (+)) [Example 29, (+)-(trans)-2-{3-fluoro-3′-[4-oxo-3-{[(2,2,2-trifluoroethyl)amino]carbonyl}-1,8-naphthyridin-1(4H)-yl]biphenyl-4-yl}cyclopropanecarboxylic acid]",0.3 nM
3,"O=C(NC1CC1)c1cn(-c2cccc(-c3ccc([C@H]4C[C@H]4C(=O)O)cc3)c2)c2ncccc2c1=O (single isomer, unassigned; isomer 2) [8-(−)-isomer, 2-(cis)-{3′-[3-[(Cyclopropylamino)carbonyl]-4-oxo-1,8-naphthyridin-1(4H)-yl]-1,1′-biphenyl-4-yl}cyclopropanecarboxylic acid]",0.7 nM
4,"O=C(NC1CC1)c1cn(-c2cccc(-c3ccc(C4CC4C(=O)O)c(F)c3)c2)c2ncccc2c1=O (single isomer, unassigned; isomer 2) [12-(−)-isomer, 2-{3′-[3-[(Cyclopropylamino)carbonyl]-4-oxo-1,8-naphthyridin-1(4H)-yl]-3-fluoro-1,1′-biphenyl-4-yl}cyclopropanecarboxylic acid]",0.4 nM
5,O=C(NC1CC1)c1cn(-c2cccc(-c3cccc(C4CC4C(=O)O)c3)c2)c2ncccc2c1=O (centres unmarked) [Example 2],0.2 nM
6,"CC(C)(CC(=O)O)c1ccc(-c2cccc(-n3cc(C(=O)NC4CC4)c(=O)c4cccnc43)c2)cc1 [Example 5, 3-{3′-[3-[(Cyclopropylamino)carbonyl]4-oxo-1,8-naphthyridin-1(4H)-yl]-1,1′-biphenyl-4-yl}-3-methylbutanoic acid]",0.6 nM
7,"O=C(NC1CC1)c1cn(-c2cccc(-c3ccc(C4CC4C(=O)O)c(Cl)c3)c2)c2ncccc2c1=O (centres unmarked) [Example 17, 2-{3-Chloro-3′-[3-[(cyclopropylamino)carbonyl]-4-oxo-1,8-naphthyridin-1(4H)-yl]-1,1′-biphenyl-4-yl}cyclopropanecarboxylic acid]",0.1 nM
8,"O=C(NCC1CC1)c1cn(-c2cccc(-c3ccc(C4CC4C(=O)O)cc3)c2)c2ncccc2c1=O (centres unmarked) [Example 26, 2-{3′-[3-{[(Cyclopropylmethyl)amino]carbonyl}4-oxo-1,8-naphthyridin-1(4H)-yl]-1,1′-biphenyl-4-yl}cyclopropanecarboxylic acid]",0.2 nM

# Source: patent publication US7342024B2, “4-Oxo-1-3-substituted phenyl-1,4-dihydro-1,8-naphthyridine-3-carboxamide phosphodiesterase-4 inhibitors” (Merck Frost Canada Ltd., priority 2002, dated 2008)
